Measured values reported in patent publication US8901090B2, “Method of treating otitis externa using macrocyclic lactone compound” (Galderma S.A., priority 2010, dated 2014).

Assay: Topical treatment of patients with acute otitis externa with ivermectin lotion (informal trials, Examples 3-6)
Format: in vivo, human
From the text: The otic composition of the present invention described above is applied into the external auditory canal and on the auricle of the affected ear. The lotion, gel, or ointment can be applied with an applicator into the external auditory canal by the patient or others. Preferably, the applicator has a smooth surface, for example, a glass rod, coated with the lotion, gel, or ointment. Although cotton swab can be used, precaution should be exercised, because cotton swab is rough and it can cause irritation to the epidermis of the external auditory canal, and cotton residue left in the ear canal can cause further complication of the condition. The composition in the form of liquid suspension can be dropped or sprayed into the external auditory canal. The otic composition can be packaged for proper dosing by the patients. Moreover, the otic composition can also be integrated into or applied on an absorbent material, such as a strip of cotton fabric or medical dressing, and then the absorbent material is inserted into the external auditory canal by a physician as needed.
Operating with informed consent of individuals, individuals were treated with the otic composition and the method of the present invention for treating otitis externa, as described in Examples 3 to 7.
A person presented with acute otitis externa, symptoms including pain, tenderness, and swelling of the right ear canal. […]

## ivermectin
Otic composition containing ivermectin at a concentration as low as 0.075%
  effectiveness in treating otitis externa: effective
Summary of Examples 3 through 6, otic composition containing 0.075% of ivermectin
  time until dramatic resolution of the symptoms: ≤ 24 h
